These results are taken from publication PMC5843756, “The drug interaction potential of daprodustat when coadministered with pioglitazone, rosuvastatin, or trimethoprim in healthy subjects” (Pharmacology Research & Perspectives, 2018).

Details of data set [1]: method as in Deng et al. 2005. To be noted: pioglitazone with gemfibrozil, strong CYP2C8 inhibitor; ref Deng et al. 2005; cited from earlier work.
Another data set can be described thus: clinical. Particulars: both, human, in vivo; for half-life: median elimination half-life, alone. The method, then:
• Part A was an open‐label, randomized, single oral dose, two‐way cross‐over design that assessed the effects of a single, oral dose of 100 mg daprodustat on the pharmacokinetics of a single, oral dose of 15 mg pioglitazone and a single, oral dose of 10 mg rosuvastatin administered as a cocktail in healthy male and female subjects; • Part B was an open‐label, single sequence, two‐way cross‐over design to assess the effect of steady‐state trimethoprim (200 mg administered orally twice daily for 3 days) on the pharmacokinetics of a single, oral dose of 25 mg daprodustat in healthy, adult male and female subjects.
For Part A, for each of the two treatment periods, subjects remained in the Unit until 48 h postdosing, and were discharged following the last postdose assessment, if no clinically significant abnormalities were noted. Treatment periods were separated by at least a 7‐day washout. […]
Plasma analysis was performed under the management of Bioanalytical Science and Toxicokinetics, Drug Metabolism and Pharmacokinetics (DMPK), and GlaxoSmithKline (GSK). […] Samples were shipped frozen to PPD (Middleton, WI) where plasma samples were analyzed for rosuvastatin, pioglitazone, or daprodustat and predominant metabolites (GSK2391220 (M2), GSK2531403 (M3), GSK2487818 (M4), GSK2506102 (M5), GSK2531398 (M6), and GSK2531401 (M13)).
Pharmacokinetic analysis was performed using Phoenix WinNonLin® 6.3 (A Certara Company, Princeton, N.J). Pharmacokinetic parameters were determined from concentration–time data for pioglitazone, rosuvastatin, daprodustat, and predominant metabolites of daprodustat using standard noncompartmental methods.
Following loge transformation, AUC0‐∞ [defaulting to AUC0‐t if AUC0‐∞ could not be consistently determined] and C max of pioglitazone and rosuvastatin (for Part A) or daprodustat and six predominant metabolites (for Part B) were separately analyzed using a mixed‐effects model with fixed‐effect terms for treatment and period, and subject as a random effect in the model. […]

The test system of a further data set is hemoglobin levels. Details: method as in Holdstock et al. 2016a. Particulars: ref Holdstock et al. 2016a, cited from earlier work.
The test system of another data set is other CYPs. To be noted: human liver microsomes, up to 100 μmol/L; earlier in vitro studies, no reference given; cited from earlier work. (In general: Liver microsomes are vesicles of endoplasmic reticulum, rich in cytochrome P450 enzymes.)
For the next data set, the system named is OATP1B1. Particulars: read-out: IC50 for inhibition of OATP1B1-mediated transport; in vitro transporter assays; earlier studies, no reference given; cited from earlier work.
The conditions of data set [2]: coadministration of gemfibrozil, strong CYP2C8 inhibitor; ref Johnson et al. 2013; cited from earlier work.
Data set [3] in a line: Part B clinical DDI: plasma pharmacokinetics of daprodustat and predominant metabolites with or without steady-state trimethoprim. Format: in vivo, human. Particulars: for AUC(0-t) / AUC(0-inf) / Cmax: geometric LS mean (%CV). The method, then:
For Part B, all subjects were administered daprodustat on Day 1 with pharmacokinetic blood sampling over the next 48 h. Starting the morning of Day 3, all subjects were administered 200‐mg trimethoprim twice‐daily for 3 days (i.e., through Day 5). On Day 6 subjects were administered concomitantly daprodustat with 200 mg trimethoprim in the morning, with pharmacokinetic blood sampling occurring over the next 48 h. Trimethoprim continued to be administered at 12 h postdosing on Day 6, and twice daily on Day 7.
Blood samples for PK analyses were collected on Day 1 and Day 6 predose and at 0.25, 0.5, 1, 2, 3, 4, 5, 6, 8, 12, 18, 24, and 48 h postdose.
No formal hypothesis was tested in this study.

Data set [4] can be described thus: Tolerability (adverse events), Parts A and B. Format: in vivo, human. An excerpt: Tolerability measures included adverse events (AEs), serious adverse events (SAEs), clinical laboratory findings, vital signs, and concurrent medication assessments. An AE was defined as any untoward medical occurrence in a subject or clinical investigation subject, temporally associated with the use of an investigational product, whether or not considered related to the investigational product. […] The investigator or site staff was responsible for detecting, documenting, and reporting events that met the definition of an AE or SAE.

The next data set has as its system CYP2C8. Particulars: read-out: IC50 for inhibition of CYP2C8; human liver microsomes; earlier in vitro studies, no reference given; cited from earlier work.
Setting [5] is: 25 mg daprodustat + trimethoprim vs daprodustat alone.
Where [6] appears, read: test:reference (with vs without trimethoprim).
Setting [7] is: Part B, Regimen C (n = 20) 25 mg daprodustat, Regimen D (n = 19) 25 mg daprodustat + 200 mg trimethoprim BID for 5 days.

The half-life is the time needed for the level to fall by half in the phase considered. The term IC50 denotes the concentration that inhibits the measured activity by half. The Cmax is the maximum level reached in the sampled fluid or tissue.

Values joined by “and” are separate entries in the source; they are usually repeats but may differ in a detail not shown here. Equal entries are not always repeated. Where two headings read alike, the source gives them in different places.

With `CCc1ccc(CCOc2ccc(CC3SC(=O)NC3=O)cc2)nc1` (stereo not drawn) [pioglitazone], in [1], the “fold increase in AUC0-∞ with gemfibrozil” value is on record as 3.4 fold. Moreover, the half-life in “clinical” was 7.01 h.
For `O=C(O)CNC(=O)C1C(=O)N(C2CCCCC2)C(=O)N(C2CCCCC2)C1=O` [daprodustat], the mean hemoglobin levels result with hemoglobin levels (HDD subjects switched from ESA treatment, 5 mg once daily, 4-week treatment period) is “maintained mean hemoglobin levels”. In addition, the “mean increase in hemoglobin” value in the data set on hemoglobin levels (NDD patients naïve to ESA treatment, oral 5 mg once daily, over 4 weeks) is listed as 1 gm/dL. Also, the “inhibition of other CYPs” value in the data set with other CYPs is “no inhibition was observed”. For the same molecule, the IC50 with OATP1B1 is 6 µM. In addition, in data set [2], the “fold increase in daprodustat AUC with gemfibrozil” value was 19 fold and the “fold increase in daprodustat Cmax with gemfibrozil” value is reported as 4 fold. For the same molecule, in [3] (setting [5]), the “fold increase in AUC with trimethoprim coadministration” value is 1.48 fold, the “fold increase in Cmax with trimethoprim coadministration” value came out at 1.28 fold, the “increase in plasma AUC with trimethoprim coadministration” value is given as 48% and the “increase in plasma Cmax with trimethoprim coadministration” value worked out at 28%. For the same molecule, the AUC(0-t) in data set [3] (both sexes, human, oral, reference: 25 mg daprodustat alone, plasma, read-out: AUC0-t, Reference) amounted to 936 ng·h/mL. Moreover, the AUC(0-inf) in [3] (both sexes, human, oral, reference: 25 mg daprodustat alone, plasma, read-out: AUC0-∞, Reference) is 937 ng·h/mL. In addition, the Cmax in data set [3] (both sexes, human, oral, reference: 25 mg daprodustat alone, plasma, read-out: Cmax, Reference) stood at 442 ng/mL. Besides, the AUC(0-t) in data set [3] (both sexes, human, oral, test: two 100 mg trimethoprim tablets (steady state) + 25 mg daprodustat, plasma, read-out: AUC0-t, Test) turned out to be 1370 ng·h/mL. In data set [3] (both sexes, human, oral, test: two 100 mg trimethoprim tablets (steady state) + 25 mg daprodustat, plasma, read-out: AUC0-∞, Test), the AUC(0-inf) amounted to 1370 ng·h/mL. For the same molecule, the Cmax in [3] (both sexes, human, oral, test: two 100 mg trimethoprim tablets (steady state) + 25 mg daprodustat, plasma, read-out: Cmax, Test) stood at 560 ng/mL. Besides, in [3] (both sexes, human, plasma, oral, 25 mg daprodustat alone, read-out: median elimination half-life, alone (converted)), the half-life was 3.06 h. Besides, the “time of observed peak plasma levels” value in [3] (both treatment periods (with and without steady-state trimethoprim)) worked out at 1 h. Besides, in data set [3] (setting [6]), the “AUC0-t, Geometric LS mean ratio (90% CI)” value is reported as 1.48 (1.39, 1.59); the “AUC0-∞, Geometric LS mean ratio (90% CI)” value is reported as 1.48 (1.39, 1.59); the “Cmax, Geometric LS mean ratio (90% CI)” value is recorded as 1.28 (1.09, 1.51). Also, the Cmax in the data set “clinical” (100 mg) is ~4.5 µM. In addition, in data set [4] (setting [7]), the Aphthous stomatitis is recorded as 0 n (%); the Catheter site phlebitis is on record as 0 n (%); the Constipation is listed as 1 (5) n (%); the Diarrhea is 2 (10%) n (%) and 2 (10) n (%). Moreover, in [4] (setting [7]), the Nausea is on record as 0 n (%), the Rhinitis was 0 n (%), the Tongue coated was 0 n (%) and the Vomiting is reported as 1 (5) n (%). The Vulvovaginal mycotic infection in [4] (setting [7]) is reported as 0 n (%). In addition, in [4] (per regimen, Parts A and B, healthy subjects), the “proportion of subjects reporting AEs” value is reported as 10%. Moreover, the half-inhibitory concentration (IC50) in the data set with CYP2C8 was 21 µM.
In the data set “clinical”, `CC(C)c1nc(N(C)S(C)(=O)=O)nc(-c2ccc(F)cc2)c1/C=C/[C@@H](O)C[C@@H](O)CC(=O)O` [rosuvastatin] had a half-life of 15.6 h.
